Test [1] concerns SHP-77. As to the kind of experiment: SHP-77 cancer cell proliferation inhibition (Cell Titer-Glo). The test is classed as cell-based. Conditions: Homo sapiens, SHP77, SHP-77 small cell lung cancer cell line, 72 hours. An outline of the steps:
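GI50 comes from CellTiter-Glo luminescence, read 10 min after reagent addition at RT, following 72 h compound treatment. Eleven concentrations were used (⅓ steps, highest 10 μM final) on 2000 cells/well. MDA-MB-231 and MDA-MB-468 were grown in DMEM, SHP-77 in RPMI.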

Test [2] deals with T1, ALK (Homo sapiens, UniProt Q9UM73).
T1 construct: purchased DiscoverX
The experiment in a line: scanMAX Kinase panel (DiscoverX), % control. The test is classed as binding. Conditions: <35% = active. An outline of the steps:
(§1)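 Tested at 1 uM in DMSO across scanMAX kinases; % control referenced to vehicle and positive control, hit threshold <35%.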

Test [3] concerns the target T2, ALK (L1196M) (Homo sapiens, UniProt Q9UM73, L1196M).
T2 construct: purchased DiscoverX
As to the kind of experiment: scanMAX Kinase panel (DiscoverX), % control. Conditions: <35% = active. The test is classed as binding. In a few lines: as §1

For test [4], the target named is T3, CLK2 (Homo sapiens, UniProt P49760).
T3 construct: purchased DiscoverX
The experiment in a line: scanMAX Kinase panel (DiscoverX), % control. Conditions: <35% = active. The test is classed as binding. In a few lines: as §1

For test [5], the target named is T4, CLK3 (Homo sapiens, UniProt P49761).
T4 construct: purchased DiscoverX
The experiment in a line: scanMAX Kinase panel (DiscoverX), % control. The test is classed as binding. Conditions: <35% = active. In a few lines: as §1

For test [6], the target named is T5, DYRK1B (Homo sapiens, UniProt Q9Y463).
T5 construct: purchased DiscoverX
The experiment in a line: scanMAX Kinase panel (DiscoverX), % control. The test is classed as binding. Conditions: <35% = active. In a few lines: as §1

The target of test [7] is T6, DYRK2 (Homo sapiens, UniProt Q92630).
T6 construct: purchased DiscoverX
T6 sequence (Q92630 1-601): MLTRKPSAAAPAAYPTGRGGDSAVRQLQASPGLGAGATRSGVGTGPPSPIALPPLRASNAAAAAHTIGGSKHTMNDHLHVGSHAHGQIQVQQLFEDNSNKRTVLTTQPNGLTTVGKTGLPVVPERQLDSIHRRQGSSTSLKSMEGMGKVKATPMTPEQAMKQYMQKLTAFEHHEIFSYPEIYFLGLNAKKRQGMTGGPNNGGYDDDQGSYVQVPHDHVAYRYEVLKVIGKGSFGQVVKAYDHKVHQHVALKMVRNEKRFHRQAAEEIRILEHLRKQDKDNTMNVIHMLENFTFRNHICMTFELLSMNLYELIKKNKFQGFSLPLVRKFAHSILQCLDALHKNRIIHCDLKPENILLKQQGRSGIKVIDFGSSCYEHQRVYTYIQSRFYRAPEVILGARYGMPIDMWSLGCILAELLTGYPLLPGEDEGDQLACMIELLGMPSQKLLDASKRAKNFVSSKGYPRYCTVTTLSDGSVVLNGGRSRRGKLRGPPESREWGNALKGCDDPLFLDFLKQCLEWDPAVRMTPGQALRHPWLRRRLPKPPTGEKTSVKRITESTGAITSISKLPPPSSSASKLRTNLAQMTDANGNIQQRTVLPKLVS
As to the kind of experiment: scanMAX Kinase panel (DiscoverX), % control. Conditions: <35% = active. The test is classed as binding. In a few lines:
as §1

The target in test [8] is T7, MYLK (Homo sapiens, UniProt Q15746).
T7 construct: purchased DiscoverX
As to the kind of experiment: scanMAX Kinase panel (DiscoverX), % control. Conditions: <35% = active. The test is classed as binding. An outline of the steps: as §1

In test [9] the test system is IL-6. As to the kind of experiment: IL-6 secretion inhibition in LPS-treated THP-1 cells (ELISA). The test is classed as cell-based. Conditions: Homo sapiens, compound 0.5 μM, LPS 500 ng/ml, 24 hours, read-out: THP1/IL6 (% inhib). In a few lines: (§2)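 Human monocytic THP-1 cells were pre-cultured 16 h at 37° C., then treated with compound at 0.5 μM final, followed by LPS at 500 ng/ml final. After 24 h, IL-6 and TNF-α in culture supernatant were quantified by ELISA with absorbance read at 450 nm.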
For orientation: In an ELISA, binding on a coated surface is turned into a signal by an enzyme label.

Test [10] deals with TNF-α. As to the kind of experiment: TNF-α secretion inhibition in LPS-treated THP-1 cells (ELISA). The test is classed as cell-based. Conditions: Homo sapiens, compound 0.5 μM, LPS 500 ng/ml, 24 hours, read-out: THP-1/TNF-a (% inhib). An outline of the steps:
as §2

Each structure is given as a SMILES string.

T1 sequence (Q9UM73 19-1620): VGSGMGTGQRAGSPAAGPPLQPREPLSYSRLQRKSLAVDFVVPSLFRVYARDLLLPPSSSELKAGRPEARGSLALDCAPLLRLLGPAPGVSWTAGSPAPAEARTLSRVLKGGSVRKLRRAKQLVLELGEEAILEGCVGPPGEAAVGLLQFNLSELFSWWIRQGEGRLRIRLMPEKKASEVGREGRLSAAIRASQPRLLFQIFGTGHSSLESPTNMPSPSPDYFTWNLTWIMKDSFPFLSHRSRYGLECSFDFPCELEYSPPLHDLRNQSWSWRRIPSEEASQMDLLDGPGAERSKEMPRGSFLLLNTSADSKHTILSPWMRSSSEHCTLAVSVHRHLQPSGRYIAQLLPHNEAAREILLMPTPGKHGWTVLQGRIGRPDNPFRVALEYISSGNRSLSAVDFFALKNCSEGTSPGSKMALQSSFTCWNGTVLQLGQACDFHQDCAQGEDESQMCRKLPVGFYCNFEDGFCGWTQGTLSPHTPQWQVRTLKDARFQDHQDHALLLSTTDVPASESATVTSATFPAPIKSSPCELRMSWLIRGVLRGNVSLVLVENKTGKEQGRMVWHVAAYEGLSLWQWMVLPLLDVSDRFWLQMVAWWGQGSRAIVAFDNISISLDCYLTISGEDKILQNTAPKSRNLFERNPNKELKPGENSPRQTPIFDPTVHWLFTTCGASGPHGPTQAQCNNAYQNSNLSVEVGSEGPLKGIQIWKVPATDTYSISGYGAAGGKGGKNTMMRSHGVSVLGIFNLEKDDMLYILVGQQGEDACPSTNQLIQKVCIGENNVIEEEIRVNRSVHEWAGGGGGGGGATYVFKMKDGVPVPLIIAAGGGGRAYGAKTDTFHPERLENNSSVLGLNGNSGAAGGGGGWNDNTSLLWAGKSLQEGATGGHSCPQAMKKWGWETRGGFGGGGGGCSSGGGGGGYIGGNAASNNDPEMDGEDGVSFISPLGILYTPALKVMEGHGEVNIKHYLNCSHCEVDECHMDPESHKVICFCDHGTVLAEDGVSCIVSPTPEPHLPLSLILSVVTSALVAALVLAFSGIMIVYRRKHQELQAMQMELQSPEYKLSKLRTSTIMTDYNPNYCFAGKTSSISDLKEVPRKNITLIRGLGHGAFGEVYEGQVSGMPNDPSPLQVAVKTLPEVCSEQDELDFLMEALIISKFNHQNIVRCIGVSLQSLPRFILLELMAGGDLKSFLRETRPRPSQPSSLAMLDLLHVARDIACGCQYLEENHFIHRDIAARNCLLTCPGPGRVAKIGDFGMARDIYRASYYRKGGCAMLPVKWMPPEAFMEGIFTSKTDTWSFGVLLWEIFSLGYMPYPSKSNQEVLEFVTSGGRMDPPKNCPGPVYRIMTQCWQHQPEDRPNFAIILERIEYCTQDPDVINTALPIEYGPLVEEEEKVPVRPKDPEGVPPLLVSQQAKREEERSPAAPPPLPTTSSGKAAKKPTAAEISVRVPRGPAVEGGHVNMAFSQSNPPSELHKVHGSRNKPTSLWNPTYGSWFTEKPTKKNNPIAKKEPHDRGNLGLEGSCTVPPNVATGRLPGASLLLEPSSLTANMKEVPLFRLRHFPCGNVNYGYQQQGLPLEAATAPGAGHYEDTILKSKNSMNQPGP
T5 sequence (Q9Y463 whole entry): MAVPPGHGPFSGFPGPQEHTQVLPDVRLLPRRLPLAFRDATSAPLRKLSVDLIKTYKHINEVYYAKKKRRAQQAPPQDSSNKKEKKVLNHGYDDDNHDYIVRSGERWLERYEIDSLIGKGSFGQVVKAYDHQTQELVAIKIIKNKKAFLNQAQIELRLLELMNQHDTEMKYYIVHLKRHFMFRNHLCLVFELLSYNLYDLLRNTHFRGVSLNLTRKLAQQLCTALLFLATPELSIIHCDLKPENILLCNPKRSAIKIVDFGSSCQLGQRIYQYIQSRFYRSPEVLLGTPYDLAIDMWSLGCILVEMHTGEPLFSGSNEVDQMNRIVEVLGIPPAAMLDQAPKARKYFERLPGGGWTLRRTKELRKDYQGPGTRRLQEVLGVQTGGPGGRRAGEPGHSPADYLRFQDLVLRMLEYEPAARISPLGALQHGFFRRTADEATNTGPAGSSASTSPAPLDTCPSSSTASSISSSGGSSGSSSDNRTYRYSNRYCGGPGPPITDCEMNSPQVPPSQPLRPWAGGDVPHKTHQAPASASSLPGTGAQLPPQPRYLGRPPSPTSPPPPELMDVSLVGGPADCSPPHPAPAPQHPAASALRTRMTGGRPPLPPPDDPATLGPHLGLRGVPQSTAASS
T2 sequence (Q9UM73 19-1620 L1196M): as the sequence (Q9UM73 19-1620) above, with L1178M counted along it
T4 sequence (P49761 whole entry): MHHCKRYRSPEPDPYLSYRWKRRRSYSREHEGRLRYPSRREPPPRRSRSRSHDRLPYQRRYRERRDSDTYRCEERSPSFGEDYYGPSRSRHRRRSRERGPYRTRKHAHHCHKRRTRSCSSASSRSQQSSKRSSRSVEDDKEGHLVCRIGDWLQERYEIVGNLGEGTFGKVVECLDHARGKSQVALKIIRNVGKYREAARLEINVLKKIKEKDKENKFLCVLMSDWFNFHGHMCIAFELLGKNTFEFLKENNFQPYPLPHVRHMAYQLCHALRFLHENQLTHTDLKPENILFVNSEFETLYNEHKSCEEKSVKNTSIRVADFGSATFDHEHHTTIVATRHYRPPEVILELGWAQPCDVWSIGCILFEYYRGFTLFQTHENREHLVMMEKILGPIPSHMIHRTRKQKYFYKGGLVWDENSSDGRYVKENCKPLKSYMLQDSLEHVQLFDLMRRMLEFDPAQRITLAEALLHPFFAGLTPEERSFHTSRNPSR
T7 sequence (Q15746 whole entry): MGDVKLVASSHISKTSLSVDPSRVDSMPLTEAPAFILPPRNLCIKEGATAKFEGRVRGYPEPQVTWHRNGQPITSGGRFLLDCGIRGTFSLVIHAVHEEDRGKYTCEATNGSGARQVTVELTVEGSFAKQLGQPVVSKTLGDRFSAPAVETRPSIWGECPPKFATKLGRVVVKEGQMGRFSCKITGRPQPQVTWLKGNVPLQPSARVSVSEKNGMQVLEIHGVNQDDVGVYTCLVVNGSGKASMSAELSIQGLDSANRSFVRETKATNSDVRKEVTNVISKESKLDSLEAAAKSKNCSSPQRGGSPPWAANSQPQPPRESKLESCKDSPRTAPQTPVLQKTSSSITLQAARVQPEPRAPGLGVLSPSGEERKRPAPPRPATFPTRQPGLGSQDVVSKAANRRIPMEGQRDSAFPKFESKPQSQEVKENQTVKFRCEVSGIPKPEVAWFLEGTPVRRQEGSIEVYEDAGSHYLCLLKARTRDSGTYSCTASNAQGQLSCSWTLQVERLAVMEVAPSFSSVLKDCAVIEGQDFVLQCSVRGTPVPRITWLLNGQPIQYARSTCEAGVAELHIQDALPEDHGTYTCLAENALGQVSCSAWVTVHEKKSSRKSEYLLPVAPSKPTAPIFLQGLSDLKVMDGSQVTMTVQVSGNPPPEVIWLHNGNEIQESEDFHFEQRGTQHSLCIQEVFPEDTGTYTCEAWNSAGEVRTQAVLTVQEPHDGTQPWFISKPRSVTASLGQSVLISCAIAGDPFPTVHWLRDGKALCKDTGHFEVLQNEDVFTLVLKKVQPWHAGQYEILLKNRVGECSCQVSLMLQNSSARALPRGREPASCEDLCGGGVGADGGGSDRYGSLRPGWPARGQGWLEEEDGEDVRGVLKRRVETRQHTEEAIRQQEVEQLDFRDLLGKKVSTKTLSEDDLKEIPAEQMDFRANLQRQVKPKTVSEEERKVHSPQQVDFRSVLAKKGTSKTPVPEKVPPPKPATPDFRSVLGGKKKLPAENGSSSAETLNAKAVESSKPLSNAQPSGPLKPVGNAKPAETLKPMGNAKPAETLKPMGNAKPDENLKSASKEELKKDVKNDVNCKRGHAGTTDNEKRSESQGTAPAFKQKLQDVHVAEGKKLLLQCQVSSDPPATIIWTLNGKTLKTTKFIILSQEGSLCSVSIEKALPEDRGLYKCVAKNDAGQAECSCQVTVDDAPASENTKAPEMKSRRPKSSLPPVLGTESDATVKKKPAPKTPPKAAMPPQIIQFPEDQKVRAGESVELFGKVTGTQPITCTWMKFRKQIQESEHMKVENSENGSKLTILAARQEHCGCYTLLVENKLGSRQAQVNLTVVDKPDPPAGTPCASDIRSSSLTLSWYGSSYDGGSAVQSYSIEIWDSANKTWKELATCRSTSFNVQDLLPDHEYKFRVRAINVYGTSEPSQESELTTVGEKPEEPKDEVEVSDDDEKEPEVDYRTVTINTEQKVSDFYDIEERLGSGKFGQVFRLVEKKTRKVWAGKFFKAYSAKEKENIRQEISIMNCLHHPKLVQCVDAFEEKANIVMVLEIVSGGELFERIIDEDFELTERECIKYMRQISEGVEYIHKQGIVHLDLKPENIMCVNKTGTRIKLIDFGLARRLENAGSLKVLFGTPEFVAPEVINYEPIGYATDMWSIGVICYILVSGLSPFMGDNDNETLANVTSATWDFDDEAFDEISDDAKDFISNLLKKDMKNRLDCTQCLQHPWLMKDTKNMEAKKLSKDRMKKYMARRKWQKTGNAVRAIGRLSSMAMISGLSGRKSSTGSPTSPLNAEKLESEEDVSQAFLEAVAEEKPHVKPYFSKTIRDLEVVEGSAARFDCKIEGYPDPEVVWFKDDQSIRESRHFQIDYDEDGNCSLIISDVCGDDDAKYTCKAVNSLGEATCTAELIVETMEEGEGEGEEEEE

As for `CCNc1cc(Nc2ccc(S(=O)(=O)N3CCC(N4CCOCC4)CC3)c3c2OCCO3)nc2[nH]cc(C(F)(F)F)c12` [Example 96, N^4-ethyl-N^6-(8-((4-morpholonopiperidin-1-yl)sulfonyl)-2,3-dihydrobenzo [b] [1,4]dioxin-5-yl)-3-(trifluoromethyl)-1H-pyrrolo[2,3-b]pyridine-4,6-diamine], the GI50 (in general, the concentration giving 50% growth inhibition) in [1] was 301 to 1000 nM. In addition, the remaining binding at 1 µM in test [2] is 9.5%; in test [3], 28%; in test [4], 1.2%; in [5] it was 27%; in test [6], 3%; in test [7] it was 21%. The same molecule returned a remaining binding at 1 µM in test [8] of 37%.
`COCCNc1cc(Nc2ccc(P3(=O)CCN(C4CC4)CC3)cc2OC)nc2[nH]cc(C(F)(F)F)c12` [Example 207, 1-cyclopropyl-4-(3-methoxy-4-((4-((2-methoxyethyl)amino)-3-(trifluoromethyl)-1H-pyrrolo[2,3-b]pyridin-6-yl)amino)phenyl)-1,4-azaphosphinane 4-oxide] displayed a GI50 in test [1] of 301 to 1000 nM. The results for the inhibition at 0.5 µM in test [9] and in [10] were 41.7% and 39.8%, respectively. The remaining binding at 1 µM in test [2] is 5.9%; in [3] it was 10%; in test [4] it was 7.2%; in test [5] it was 66%; in test [6], 0%; in test [7], 18%. Besides, in test [8], the remaining binding at 1 µM was 5.3%.
As for `CCNc1cc(Nc2ccc(C(=O)N3CCC(N4C[C@@H]5C[C@H]4CO5)CC3)c3c2OCC3)nc2[nH]cc(C(F)(F)F)c12` [Example 105, (4-((1S,4S)-2-oxa-5-azabicyclo[2.2.1]heptan-5-yl)piperidin-1-yl)(7-((4-(ethylamino)-3-(trifluoromethyl)-1H-pyrrolo[2,3-b]pyridin-6-yl)amino)-2,3-dihydrobenzofuran-4-yl)methanone], the inhibition at 0.5 µM in test [9] was 33.2%; in [10], 1.7%. In addition, the remaining binding at 1 µM amounted to 0.3% in test [2]; 2.3% in [3]; 0.35% in [4]; 5.9% in test [5]; 0.9% in test [6]; 8% in test [7]. For the same molecule, the remaining binding at 1 µM in test [8] turned out to be 1.3%.

For the origin of these results see patent US12240844B2 (Voronoi, Inc., priority 2019, dated 2025).
